The nature of series [1]: Lipophilicity (log P). The conditions noted are these: octanol/water. Type of series: physicochemical.
In series [2] the target is cortical Aβ plaques (Homo sapiens, UniProt P05067). Briefly: In vitro autoradiography of AD frontal cortex sections. It is filed as binding. The procedure: Literature precedents indicate the presence of at least three different binding sites, characterized as BS1, BS2 and BS3 on the Aβ fibrils in vitro[24] and extracts from AD homogenates. […] Overall, these investigations indicate that different PET tracers may be beneficial to better understand Aβ pathophysiology in vivo. […] Further, to evaluate ability of [^18F]-9 for labeling Aβ in autopsy confirmed human brain sections, autoradiography and immunohistochemical correlations were also performed.
Chain of cortical Aβ plaques (P05067 672-711 limits assumed): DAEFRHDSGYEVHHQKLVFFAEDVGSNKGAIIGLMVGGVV
(§1) Scientific Reports Version of August 4, 2016
Autoradiography of Human Brain Sections and Immunohistochemistry Correlation Autoradiography and immunohistochemistry (IHC) were performed as previously described14 with minor modifications. Briefly, a sample of frozen AD frontal cortex was sectioned using a TBS Minotome PLUS Cryostat set at a thickness of 12 microns. The tissue sections were thaw-mounted onto Superfrost Plus (Fisherbrand 12-550-15) microscope slides and allowed to air dry for 10–15 min prior to storage at -80 °C. […]
Autoradiography images were obtained on GE Typhoon System FLA-9500 (Tokyo, Japan) at 25 µm resolution. […] IHC images were obtained on a NanoZoomer 2.0-HT System ([…]) at 20x resolution with DAPI and TRITC fluorescence filters using NDP.scan 2.5 software ([…]). […]

Series [3] deals with T1, Aβ1–42 fibrils (Homo sapiens, UniProt P05067).
T1 construct: Commercially available amyloid peptide Aβ1-42; purchased
T1 sequence (P05067 672-713 limits assumed): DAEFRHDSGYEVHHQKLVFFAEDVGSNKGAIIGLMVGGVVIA
In words: Fluorescence binding assay of 5 with preformed Aβ1–42 fibrils. The conditions noted are these: preformed Aβ1–42 aggregates in PBS, single site binding model. The procedure:
For assessing the ability of 5 to bind Aβ plaques; preliminary binding assays with preformed Aβ1–42 fibrils were performed in PBS. […] Additionally, it is also noteworthy that no fluorescence was observed using Aβ aggregates alone in PBS following excitation at 392 nm (a negative control).
as §1
Preparation of Aβ fibrils.
Commercially available amyloid peptide Aβ1-42 (433 µg) was gently dissolved in PBS (1 mL, pH 7.4, 100 µM)5. The solution was incubated for 36-48 h at 37°C with continuous gentle shaking to avoid gel formation at the meniscus. The aggregated peptide suspension was stored at -80°C until needed (the […]
Binding of 5 with Aβ fibrils
In vitro binding assays to preformed fibrils were performed using literature procedures. […]
indicating binding to Aβ aggregates, similar to enhancement in fluorescence of thioflavin-T in PBS (a positive control; data not shown). Additionally, it is also noteworthy that no fluorescence was observed using Aβ aggregates alone in PBS upon excitation at 410 nm (a negative control). All measurements were made in triplicates; fluorescence of either 5 alone or fibrils at a given concentration was subtracted. […]
SI Figure 2. […] All measurements were made in triplicates; fluorescence of either 5 alone or fibrils at a given concentration was subtracted. […]

Each structure is given as a SMILES string.

Broadly, the logP is a log measure of how a compound divides between an organic and an aqueous phase. `CN(C)c1ncc(/C=C\c2nc3cc(OCC[18F])ccc3[se]2)cn1` [[^18F]-9] had a logP in series [1] of 1.28. For the same compound, in series [2] (2 nM, 60 min, AD frontal cortex sections (12 μm)), the labeling in autoradiography result was “showed labeling of cortical Aβ plaques”.
One may read the Kd as a measure of binding affinity in units of concentration. For the compound `CN(C)c1ncc(/C=C\c2nc3cc(OCCF)ccc3[se]2)cn1` [compound 5, (Z)-5-(2-(5-(2-fluoroethoxy)benzo[d][1,3]selenazol-2-yl)vinyl)-N,N-dimethylpyrimidin-2-amine], the affinity in series [3], expressed as Kd, was 1.58 ± 0.05 nM. Further, in series [2] (1 μM cold ligand with 2 nM [18F]-9), the “effect on [18F]-9 binding in autoradiography” value is “binding was inhibited”.

Values taken from paper PMC5090206, “Fluselenamyl: A Novel Benzoselenazole Derivative for PET Detection of Amyloid Plaques (Aβ) in Alzheimer’s Disease” (Scientific Reports, 2016).
